In test [1] the target is human full length PIK3CA H1047R mutant (p110α/p85α complex) (Homo sapiens (Human), UniProt P42336, H1047R). Briefly: PI3K-Alpha kinase (PIK3CA) activity, H1047R mutant, Transcreener ADP2 FI assay. The settings on record: PI3K-α (PIK3CA) H1047R mutant, biochemical. The procedure:
(§1) PI3K-Alpha kinase (PIK3CA) activity, wild-type and H1047R mutant and determining IC50 values for inhibitors
(§2) Recombinant, catalytically active human full length PIK3KA Wild-type and H1047R mutant were purchased as 1:1 complex of N-terminal 6×his tagged p110<(catalytic) and untagged p85<(regulatory subunit) from EMD Millipore Sigma (cat. no. 14-602M and 14-792M, respectively). The enzyme stocks were diluted to 5× stocks in buffer (20 mM HEPES pH 7.4, 100 mM NaCl, 0.5 mM EGTA, 0.01% triton-x-100) just before use. PIP2diC8 (Avanti Polar Lipids Inc., cat. no. 850185) or phosphoinositol-4,5-bisphosphate with phosphoserine (PIP2:PS) membrane (Thermo Fisher Scientific, cat. no. PV5100) was used as lipid substrates. PIP2diC8 lyophilized powder and PIP2:PS (1:19) membrane stock (1 mM in PIP2) were separately dissolved in milliQ water to a concentration of 250 uM and stored in −20° C. 10 mM stocks of compounds were serially diluted (3×) in neat DMSO and stored in a dessicator at room temperature. 5× compound stocks in 25% DMSO were prepared fresh from neat DMSO stocks. Wild-type (WT) and H1047R mutant protein, along with buffer components (except ATP), were incubated with or without compound at 27° C. for 1h. After incubation, the reaction was initiated by the addition of 5 uL of 125 uM ATP. A typical assay mixture (25 uL) comprised 40 mM HEPES buffer, pH 7.4, 25 mM MgCl2, 0.01% v/v triton-X-100, 5% v/v DMSO, 20 mM NaCl, 1-5 nM wt or H1047R, 25 uM ATP, and 50 uM PTP2diC8 or PTP2 in membrane. The reaction was allowed to proceed until about […] (2.5 uM ADP) after which time, 10 uL of reaction mixture was quenched with 25 uL of transcreener reagent (Transcreener ADP2 FI assay kit, BellBrook labs, Cat. No. 3013). The contents were incubated at rt for 1h and fluorescence was measured using a plate reader (Paradigm, Molecular Devices). The same assay was also run at pH 6.0 or 6.4 using MOPS buffer (Fisher BioReagents, CAS 1132-61-2). A calibration curve was generated under identical buffer conditions with varying ADP amounts. Using that, the observed fluorescence was converted to uM ADP. A plot between [ADP] and log[I] yielded the dose-response curves that enabled the calculation of IC50s.

In test [2] the target is human full length PIK3CA Wild-type (p110α/p85α complex) (Homo sapiens (Human), UniProt P42336). The test can be described thus: PI3K-Alpha kinase (PIK3CA) activity, wild-type, Transcreener ADP2 FI assay. The conditions noted are these: PI3K-α (PIK3CA) wild-type, biochemical. The procedure: as §1, §2
Sequence of human full length PIK3CA Wild-type (p110α/p85α complex) (P42336 whole entry): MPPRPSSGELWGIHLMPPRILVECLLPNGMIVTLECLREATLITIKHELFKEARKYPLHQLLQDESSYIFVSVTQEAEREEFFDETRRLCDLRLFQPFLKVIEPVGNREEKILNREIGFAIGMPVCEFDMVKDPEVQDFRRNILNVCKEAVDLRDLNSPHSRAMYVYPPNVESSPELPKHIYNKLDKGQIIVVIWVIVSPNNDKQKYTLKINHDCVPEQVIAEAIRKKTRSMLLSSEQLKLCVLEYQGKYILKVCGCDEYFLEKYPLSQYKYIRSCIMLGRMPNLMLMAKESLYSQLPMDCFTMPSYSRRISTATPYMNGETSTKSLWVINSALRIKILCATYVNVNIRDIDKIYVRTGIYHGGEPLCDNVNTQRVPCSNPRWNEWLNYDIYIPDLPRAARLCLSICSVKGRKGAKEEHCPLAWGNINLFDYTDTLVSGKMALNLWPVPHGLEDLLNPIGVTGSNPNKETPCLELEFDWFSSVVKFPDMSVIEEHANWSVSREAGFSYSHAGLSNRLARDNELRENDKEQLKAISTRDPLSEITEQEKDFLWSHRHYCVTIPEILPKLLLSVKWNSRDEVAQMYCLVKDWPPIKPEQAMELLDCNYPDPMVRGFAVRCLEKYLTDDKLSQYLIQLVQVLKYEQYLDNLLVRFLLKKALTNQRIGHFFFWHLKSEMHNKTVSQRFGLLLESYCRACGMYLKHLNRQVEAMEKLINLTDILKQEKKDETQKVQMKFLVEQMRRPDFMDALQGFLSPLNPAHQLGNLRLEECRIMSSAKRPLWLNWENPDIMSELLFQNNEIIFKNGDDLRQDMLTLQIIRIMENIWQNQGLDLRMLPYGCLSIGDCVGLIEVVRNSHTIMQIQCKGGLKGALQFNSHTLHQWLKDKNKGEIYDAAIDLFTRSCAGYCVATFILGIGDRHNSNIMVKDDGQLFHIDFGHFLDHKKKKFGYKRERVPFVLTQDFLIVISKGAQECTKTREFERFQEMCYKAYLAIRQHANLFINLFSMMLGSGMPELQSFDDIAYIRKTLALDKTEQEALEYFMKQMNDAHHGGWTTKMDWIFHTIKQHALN
Sequence of human full length PIK3CA Wild-type (p110α/p85α complex) (P27986 whole entry partner): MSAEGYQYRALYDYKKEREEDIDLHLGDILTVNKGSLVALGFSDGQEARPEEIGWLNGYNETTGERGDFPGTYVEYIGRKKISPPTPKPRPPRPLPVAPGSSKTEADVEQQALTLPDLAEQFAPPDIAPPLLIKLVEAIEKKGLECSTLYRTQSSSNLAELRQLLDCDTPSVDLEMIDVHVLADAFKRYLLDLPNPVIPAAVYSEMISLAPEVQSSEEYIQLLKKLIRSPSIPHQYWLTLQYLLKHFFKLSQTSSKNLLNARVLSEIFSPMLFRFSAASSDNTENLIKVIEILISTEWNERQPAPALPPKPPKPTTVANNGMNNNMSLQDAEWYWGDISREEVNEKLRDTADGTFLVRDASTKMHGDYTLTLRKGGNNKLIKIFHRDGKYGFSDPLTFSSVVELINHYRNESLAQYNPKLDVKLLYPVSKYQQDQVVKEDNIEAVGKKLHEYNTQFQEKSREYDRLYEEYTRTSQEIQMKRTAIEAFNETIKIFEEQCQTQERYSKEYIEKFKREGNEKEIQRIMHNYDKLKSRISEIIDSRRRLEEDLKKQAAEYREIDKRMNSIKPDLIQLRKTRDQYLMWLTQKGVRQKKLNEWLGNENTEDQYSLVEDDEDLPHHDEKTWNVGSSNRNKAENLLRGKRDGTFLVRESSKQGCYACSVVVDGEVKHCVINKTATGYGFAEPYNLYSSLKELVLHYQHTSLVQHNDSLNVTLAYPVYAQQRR

Where only a bound is given, the exact number is not on record here.

Sequence of human full length PIK3CA H1047R mutant (p110α/p85α complex) (P42336 whole entry H1047R): as the sequence (P42336 whole entry) above, with H1047R counted along it
Sequence of human full length PIK3CA H1047R mutant (p110α/p85α complex) (P27986 whole entry partner): as the sequence (P27986 whole entry partner) above

For orientation: IC50 means the concentration that inhibits the measured activity by half. Low values mean higher potency, high ones lower potency. Consider `Cc1cc(C(C)Nc2ccccc2C(=O)O)c2oc(N3CCC(C)(C)CC3)c(C3CC3)c(=O)c2c1` (single isomer, unassigned) [Example 51, 2-[1-[3-Cyclopropyl-2-(4,4-dimethyl-1-piperidyl)-6-methyl-4-oxo-chromen-8-yl]ethyalmino]benzoic acid], for which the IC50 was < 500 nM in test [1] and 1000 to 5000 nM in test [2].
For the compound `Cc1cc(C(C)Nc2ccccc2C(=O)O)c2oc(N3CCC(C)(C)CC3)c(-c3cnoc3)c(=O)c2c1` (single isomer, unassigned) [Example 53], the IC50 was < 500 nM in test [1] and 500 to 1000 nM in test [2].
In the case of `Cc1cc(C(C)Nc2ccccc2C(=O)O)c2oc(N3CCC(C)(C)CC3)c(-c3cnoc3)c(=O)c2c1` (single isomer, unassigned) [Example 54, 2-[1-[2-(4,4-Dimethyl-1-piperidyl)-3-isoxazol-4-yl-6-methyl-4-oxo-chromen-8-yl]ethylamino]benzoic acid], the IC50 in test [1] and in test [2] was > 10000 nM throughout.
Consider `COC12CC(C1)N(c1cc(=O)c3cc(C)cc(C(C)Nc4ccccc4C(=O)O)c3o1)C2` (single isomer, unassigned) [Example 111, 2-[1-[2-(4-Methoxy-2-azabicyclo[2.1.1]hexan-2-yl)-6-methyl-4-oxo-chromen-8-yl]ethylamino]benzoic acid], for which the IC50 in test [1] and in test [2] was > 10000 nM each time.
Consider `COC12CC(C1)N(c1cc(=O)c3cc(C)cc(C(C)Nc4ccccc4C(=O)O)c3o1)C2` (single isomer, unassigned) [Example 112, 2-[1-[2-(4-Methoxy-2-azabicyclo[2.1.1]hexan-2-yl)-6-methyl-4-oxo-chromen-8-yl]ethylamino]benzoic acid], for which the IC50 in test [1] lay in the range of 500 to 1000 nM; in test [2] it was 1000 to 5000 nM.
Regarding `Cc1cc(C(C)Nc2ccccc2C(=O)O)c2oc(N3Cc4ccc(F)cc4C3)cc(=O)c2c1` (single isomer, unassigned) [Example 123, 2-[1-[2-(5-Fluoroisoindolin-2-yl)-6-methyl-4-oxo-chromen-8-yl]ethylamino]benzoic acid], the IC50 in test [1] was < 500 nM; in test [2] it was 500 to 1000 nM.
As for `Cc1cc(C(C)Nc2ccccc2C(=O)O)c2oc(N3Cc4ccc(F)cc4C3)cc(=O)c2c1` (single isomer, unassigned) [Example 124, 2-[1-[2-(5-Fluoroisoindolin-2-yl)-6-methyl-4-oxo-chromen-8-yl]ethylamino]benzoic acid], the IC50 in test [1] was 5000 to 10000 nM; in test [2], > 10000 nM.
With `Cc1cc(C(C)Nc2ccccc2C(=O)O)c2oc(N3CCC(c4ccncc4)C3)cc(=O)c2c1` (single isomer, unassigned) [Example 194, 2-[1-[6-Methyl-4-oxo-2-[3-(4-pyridyl)pyrrolidin-1-yl]chromen-8-yl]ethylamino]benzoic acid 2,2,2-trifluoroacetic acid], the 50% inhibitory concentration (IC50) in test [1] was 500 to 1000 nM; in test [2], > 10000 nM.
In the case of `Cc1cc(C(C)Nc2ccccc2C(=O)O)c2oc(N3CC4(CCN4c4ccccc4)C3)cc(=O)c2c1` (single isomer, unassigned) [Example 203, 2-[1-[6-Methyl-4-oxo-2-(1-phenyl-1,6-diazaspiro[3.3]heptan-6-yl)chromen-8-yl]ethylamino]benzoic acid 2,2,2-trifluoroacetic acid], the IC50 in test [1] is < 500 nM; in test [2] it was 1000 to 5000 nM.
As to `CCC1(c2ccccc2)CN(c2cc(=O)c3cc(C)cc(C(C)Nc4ccccc4C(=O)O)c3o2)C1` (single isomer, unassigned) [Example 212, 2-[1-[2-(3-Ethyl-3-phenyl-azetidin-1-yl)-6-methyl-4-oxo-chromen-8-yl]ethylamino]benzoic acid 2,2,2-trifluoroacetic acid], the figures for the IC50 in test [1] and in test [2] were < 500 nM and 500 to 1000 nM, respectively.
With `Cc1cc(C(C)Nc2ccccc2C(=O)O)c2oc(N3CC4(C3)CC(F)(F)C4)cc(=O)c2c1` (single isomer, unassigned) [Example 222, 2-[1[2-(6,6-Difluoro-2-azaspiro[3.3]heptan-2-yl)-6-methyl-4-oxo-chromen-8-yl]ethylamino]benzoic acid 2,2,2-trifluoroacetic acid], the IC50 in test [1] was < 500 nM; in test [2], 1000 to 5000 nM.
On the same counts, the results for `Cc1cc(C(C)Nc2ccccc2C(=O)O)c2oc(N3CC(c4ccccc4)C3)cc(=O)c2c1` (single isomer, unassigned) [Example 236, 2-[1-[6-Methyl-4-oxo-2-(3-phenylazetidin-1-yl)chromen-8-yl]ethylamino]benzoic acid 2,2,2-trifluoroacetic acid] are < 500 nM and 500 to 1000 nM.
Turning to `Cc1cc(C(C)Nc2cccc(F)c2C(=O)O)c2oc(N3Cc4ccc(F)cc4C3)c(C)c(=O)c2c1` (single isomer, unassigned) [Example 244, 2-Fluoro-6-[1-[2-(5-fluoroisoindolin-2-yl)-3,6-dimethyl-4-oxo-chromen-8-yl]ethylamino]benzoic acid], the IC50 was > 10000 nM in test [1] and 5000 to 10000 nM in test [2].
Turning to `Cc1cc(C(C)Nc2ccccc2C(=O)O)c2oc(N3Cc4ccc(F)cc4C3)c(C)c(=O)c2c1` (single isomer, unassigned) [Example 272, 2-[1-[2-(5-Fluoroisoindolin-2-yl)-3,6-dimethyl-4-oxo-chromen-8-yl]ethylamino]benzoic acid], the IC50 in test [1] was < 500 nM; in test [2], 500 to 1000 nM.
For `Cc1c(N2Cc3ccc(F)cc3C2)oc2c(C(C)Nc3ccccc3C(=O)O)cc(F)cc2c1=O` (single isomer, unassigned) [Example 319, 2-[1-[6-Fluoro-2-(5-fluoroisoindolin-2-yl)-3-methyl-4-oxo-chromen-8-yl]ethylamino]benzoic acid], in that order: < 500 nM and 500 to 1000 nM.
Regarding `Cc1c(N2Cc3ccccc3C2)oc2c(C(C)Nc3ccccc3C(=O)O)cc(F)cc2c1=O` (single isomer, unassigned) [Example 324, 2-[1-(6-Fluoro-2-isoindolin-2-yl-3-methyl-4-oxo-chromen-8-yl)ethylamino]benzoic acid], the IC50 in test [1] and in test [2] was < 500 nM each time.
With `Cc1c(N2CCC(F)(F)CC2)oc2c(C(C)Nc3ccccc3C(=O)O)cc(F)cc2c1=O` (single isomer, unassigned) [Example 326, 2-[1-[2-(4,4-Difluoro-1-piperidyl)-6-fluoro-3-methyl-4-oxo-chromen-8-yl]ethylamino]benzoic acid], the IC50 in test [1] and in test [2] was < 500 nM in each case.
In the case of `Cc1c(N2CCC3(CC2)CC3)oc2c(C(C)Nc3ccccc3C(=O)O)cc(F)cc2c1=O` (single isomer, unassigned) [Example 328, 2-[1-[2-(6-Azaspiro[2.5]octan-6-yl)-6-fluoro-3-methyl-4-oxo-chromen-8-yl]ethylamino]benzoic acid], the IC50 in test [1] and in test [2] was < 500 nM throughout.
For the compound `CC(Nc1ccccc1C(=O)O)c1cc(C(F)(F)F)cc2c(=O)cc(N3Cc4ccc(F)cc4C3)oc12` (single isomer, unassigned) [Example 335, 2-[1-[2-(5-Fluoroisoindolin-2-yl)-4-oxo-6-(trifluoromethyl)chromen-8-yl]ethylamino]benzoic acid], the IC50 was < 500 nM in test [1] and 500 to 1000 nM in test [2].
Regarding `CC(Nc1ccccc1C(=O)O)c1cc(C(F)(F)F)cc2c(=O)cc(N3Cc4ccccc4C3)oc12` (single isomer, unassigned) [Example 342, 2-[1-[2-Isoindolin-2-yl-4-oxo-6-(trifluoromethyl)chromen-8-yl]ethylamino]benzoic acid], the IC50 in test [1] and in test [2] was < 500 nM each time.
For the compound `Cc1c(N2Cc3ccc(F)cc3C2)oc2c(C(C)Nc3ccccc3C(=O)O)cc(C(F)(F)F)cc2c1=O` (single isomer, unassigned) [Example 343, 2-[1-[2-(5-Fluoroisoindolin-2-yl)-3-methyl-4-oxo-6-(trifluoromethyl)chromen-8-yl]ethylamino]benzoic acid], the IC50 is < 500 nM in test [1] and 500 to 1000 nM in test [2].
As to `Cc1c(N2Cc3ccccc3C2)oc2c(C(C)Nc3ccccc3C(=O)O)cc(C(F)(F)F)cc2c1=O` (single isomer, unassigned) [Example 348, 2-[1-[2-Isoindolin-2-yl-3-methyl-4-oxo-6-(trifluoromethyl)chromen-8-yl]ethylamino]benzoic acid], the IC50 is < 500 nM in test [1] and 500 to 1000 nM in test [2].

Values taken from patent US11649227B2, “Allosteric chromenone inhibitors of phosphoinositide 3-kinase (PI3K) for the treatment of disease” (Petra Pharma Corporation, priority 2020, dated 2023).
